Experimental data taken from patent US20040176430A1, “Propargyl-trifluoromethoxy-amino-benzothiazole derivatives” (priority 2002, published 2004).
“And” between values parts separate entries of the source, which are not always exact repeats. Equal entries are not always repeated.

Legend:
EAE = experiment: Experimental Allergic Encephalomyelitis (EAE) model of MS; assay type: in vivo, mice; settings: 10 mg/kg twice daily, oral gavage, 30 days
Procedure: EAE is an accepted animal model of autoimmune disorder (Tisch et al. Proc. Natl. Acad. Sci. USA (1994) 91:437-438). EAE was induced by injecting the encephalitogenic agent consisting of MSCH and commercial CFA containing Mycobacterium tuberculosis H37Ra to the foot-pads of the animals and pertussis toxin intravenously.
GA-DS in MSCH emulsion was injected in the four footpads. The other compounds were administered to the respective groups by oral gavage twice daily for 30 consecutive days starting from the day of induction until the termination of the study.
Scoring of EAE clinical signs was initiated from Day 10 post-EAE induction and was continued daily for 20 days. The clinical signs were recorded on observation cards according to a grading system described in the table below.
The number of dead or moribund animals in each group were summed.
The mortality rate was calculated as: [formula]
The mean maximal score (MMS) of each group was calculated as Σ maximal score of each mouse/number of mice in the group.
The percent inhibition was calculated as [formula]
The daily scores of each mouse in the test group was summed and the individual mean daily score (IMS) was calculated as IMS=daily score of mouse/observation period (days).
The mean group score (GMS) will be calculated as Σ IMS of each mouse/number of mice in the group.
The percent inhibition will be calculated as [formula]

PC-12 cells = experiment: Effect on MPP+ treated PC-12 cells (LDH release); assay type: cell-based; settings: MPP+ 1000 μM for 48 hours, tested compound 10 μM added 30 min prior to MPP+
Procedure: Pheochromocytoma PC-12 cells (at a density of 200,000 cells/well) were cultured for 10 days with 50 ng/ml NGF on 6-well culture dishes coated with 200 ug/ml rat tail type I collagen (BD Biosciences, Bedford, Mass., USA). On the day of the experiment the morphological differentiation of the cells was very advanced (typical network formation). In order to initiate the neurotoxic insult, cells were treated with 1000 μM of 1-methyl-4-phenylpyrdinium (MPP+) iodide salt from RBI chemicals (Natick, Mass., USA) for 48 hours in the absence or presence of tested compounds, added to the culture 30 min. prior to MPP+ administration. […] At the cellular level, neuronal cell death is induced by several mechanisms including pathological concentrations of intracellular calcium and free oxygen radicals. Therefore the positive control in this experiment was nimodipine at the concentration of 10 μM (RBI chemicals, Natick, Mass., USA)(a potent L-type calcium channel blocker). At the end of the experiment cell death was measured by assessing Lactate dehydrogenase (LDH) activity in the medium. High medium LDH indicated increased neuronal death that promoted leakage of this cytoplasmic enzyme into the medium.
Measuring lactate dehydrogenase activity in the medium was performed using a Sigma Diagnostics LD-L reagent. LDH activity was spectrophotometrically monitored at 340 nm by following the rate of conversion of oxidized nicotinamide adenine dinucleotide (NAD^+) to the reduced form of (NADH). Total LDH of each culture (extracellular+intracellular) was obtained by measuring LDH in the medium after freezing and thawing of the cultures. Basal LDH release was measured in untreated cultures (no MPP+). The neurotoxic effect was calculated according to the formula: (LDHs−LDHb)/LDHt×100. (s=sample; b=basal; t=total). Each compound was tested in sixplicate.

C57bl mice = experiment: Effect on MPP+ toxicity in mice (striatal dopamine and DOPAC); assay type: in vivo; settings: for DOPAC Pmol/mg tissue +/− S.E.M. / Dopamine Pmol/mg tissue +/− S.E.M.: 5 mg/kg oral in CMC
Procedure: MPP+ is a neuro-toxin and its injection into the brain causes depletion of striatal dopamine. Male C57bl mice, weighing 24-25 g were divided into 4 groups A-D receiving the following treatments:
A: Oral administration of 0.25% Carboxymethyl cellulose (CMC, 0.1 ml/mouse) and intracerebroventricular (ICV) injection of saline (10 μl/mouse).
B. Oral administration of 5 mg/kg 3a in 0.1 ml CMC, and ICV injection of 10 μl saline.
C. Oral administration of 0.1 ml CMC, and ICV injection of 30 μg MPP+ dissolved in 10 μl saline.
D. Oral administration of 5 mg/kg 3a in 0.1 ml CMC, and ICV injection of 30 μg MPP+ dissolved in 10 μl saline.
3a/CMC or CMC alone were orally administered 30 minutes before and 2 hours after ICV injection. The injection was done according to Haley T. J and McCormick W. G (Brit.J. Pharmacol., 1957, 12, 12) using ether anesthesia. Saline or MPP+/saline were injected during 1 second using a syringe that delivered the liquid at a rate of 0.6 ml/min. Two ICV injections were carried out with a 24 hour interval between them. Mice were killed six days after the last injection and striata taken for dopamine and DOPAC determinations. Each striatum was weighed, homogenized in 0.1M Perchloric acid (0.6 ml) containing 2 mM sodium metabisulfite and 0.3 mM EDTA. After centrifugation at 13000 g for 7 minutes, the supernatant was taken for catecholamine determination. Aliquotes of 20 μl were injected into the solvent stream of an HPLC apparatus equipped with a Microsorb column (packing 3 μm, 4.6 mm diameter, 12.5 cm long). The mobile phase was composed of NaH2PO4 100 mM, octan-1-sulphonic acid 1.5 mM, disodium ethylenediaminetetracetic acid 250 μM, methanol 2.3%, acetonitrile 4% in grade deionized water, at a flow rate of 1.0 ml min^−1. Dopamine and DOPAC were detected with an ESA Coulochem model 5014 detector (Bedford, Mass., USA). Column eluates were initially oxidized by an ESA guard cell (model 5020) at +300 mV, then reduced at +60 mV at detector 1 and measured at detector 2 at −250 mV.

[1] = with ICV MPP+ 30 μg (Group D), striatum six days after last injection
[2] = without MPP+, ICV saline (Group B), striatum

melting point	Compound	GMS % Inhibition (EAE)	MMS % Inhibition (EAE)	Mortality % Inhibition (EAE)	Percent of total LDH release (mean ± S.E.M.) (PC-12 cells)	other results
–	C#CCN(C)c1nc2ccc(OC(F)(F)F)cc2s1 [Compound 3, Methyl-prop-2-ynyl-(6-trifluoromethoxy-benzothiazol-2-yl)-amine]	87.5%	73.5%	100%	–	–
–	COCCOC(=O)C1=C(C)NC(C)=C(C(=O)OC(C)C)C1c1cccc([N+](=O)[O-])c1 (stereo not drawn) [Nimodipine, reference compound]	–	–	–	3.6 ± 0.4%	Percent of total LDH release (mean ± S.E.M.) (PC-12 cells; listed as nimodipine): 3.6%
98 to 100 °C	C#CCN=c1sc2cc(OC(F)(F)F)ccc2n1CC(=O)c1ccc(C)cc1 [Compound 13, 2-(2-Prop-2-ynylimino-6-trifluoromethoxy-benzothiazole-3-yl)-1-p-tolyl-ethanone]	–	–	–	–	–
42 to 43 °C	C#CC(C)N(C)c1nc2ccc(OC(F)(F)F)cc2s1 (stereo not drawn) [Compound 6, Methyl-(1-methyl-prop-2-ynyl)-(6-trifluoromethoxy-benzothiazol-2-yl)-amine]	–	–	–	–	–
138 to 140 °C	C#CCNc1nc2ccc(OC(F)(F)F)cc2s1 [Compound 4, Prop-2-ynyl-(6-trifluoromethoxy-benzothiazol-2-yl)-amine]	–	–	–	–	–
–	C#CCN=c1sc2cc(OC(F)(F)F)ccc2n1C [Compound 10, (3-Methyl-6-trifluoromethoxy-3H-benzothiazol-2-ylidene)-prop-2-ynyl-amine]	37.5%	34.1%	40%	–	–
–	C#CCN(CC(=O)c1ccc(C)cc1)c1nc2ccc(OC(F)(F)F)cc2s1 [Compound 9, 2-[Prop-2-ynyl-(6-trifluoromethoxy-benzothiazole-2-yl)-amino]-1-p-tolyl-ethanone]	57.6%	48.8%	50%	–	–
–	C#CCN(C)c1nc2ccc(OC(F)(F)F)cc2s1.Cl [Compound 3a, Methyl-prop-2-ynyl-(6-trifluoromethoxy-benzothiazol-2-yl)-amine.HCl salt]	–	–	–	10.9% and 10.9 ± 2.3%	Effect on MPP+ caused depletion in striatal concentrations of dopamine and DOPAC (C57bl mice; Group D, 5 mg/kg oral, MPP+ ICV): reduced this depletion; DOPAC Pmol/mg tissue +/− S.E.M. (C57bl mice; [1]): 3.7 +/− 0.2 Pmol/mg tissue; Dopamine Pmol/mg tissue +/− S.E.M. (C57bl mice; [1]): 66.0 +/− 3.4 Pmol/mg tissue; DOPAC Pmol/mg tissue +/− S.E.M. (C57bl mice; [2]): 4.8 +/− 0.4 Pmol/mg tissue; Dopamine Pmol/mg tissue +/− S.E.M. (C57bl mice; [2]): 78.2 +/− 4.3 Pmol/mg tissue
–	C#CCNc1nc2ccc(OC(F)(F)F)cc2s1.Cl [Compound 4a, Prop-2-ynyl-(6-trifluoromethoxy-benzothiazol-2-yl)-amine.HCl salt]	–	–	–	25 ± 8.0%	–
